Laboratory results from patent publication US20100221763A1, “Specific Acceptors for Transferases to Saccharides and Method for Obtaining and Using Same” (Health Research, Inc, priority 2005, published 2010).
“And” between values parts separate entries of the source, which are not always exact repeats. Identical values can stand only once. Marks after values point to notes of the source that are not given here.

What was measured:
[1] = molecular target: T1, Rat recombinant α2,3(O)ST (Rattus norvegicus, UniProt Q11205); test: Sialyltransferase assay with cloned α2,3(O)ST; format: biochemical; conditions: for Sialyltransferase activity (%) Cloned α2,3(O)ST: Table I, acceptor 7.5 mM, [14C] sialylated product quantitated on Biogel P2 column; for acceptor efficiency for cloned α2,3(O)ST: 0.75 mM, compared to 3-O-MeGalβ1,4GlcNAcβ1,6(Galβ1,3)GalNAcα-O-Bn
T1 construct: purchased Calbiochem
T1 sequence (Q11205 1-350): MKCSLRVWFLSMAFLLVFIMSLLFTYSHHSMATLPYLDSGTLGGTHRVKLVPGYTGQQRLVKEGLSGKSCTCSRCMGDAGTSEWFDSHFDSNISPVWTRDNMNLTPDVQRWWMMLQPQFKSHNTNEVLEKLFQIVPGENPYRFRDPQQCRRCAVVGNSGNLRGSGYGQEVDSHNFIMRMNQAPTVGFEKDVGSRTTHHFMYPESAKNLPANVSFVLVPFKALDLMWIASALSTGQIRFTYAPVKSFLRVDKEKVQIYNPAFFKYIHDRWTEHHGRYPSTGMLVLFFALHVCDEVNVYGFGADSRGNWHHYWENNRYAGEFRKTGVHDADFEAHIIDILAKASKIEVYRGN

[2] = molecular target: T1, Rat recombinant α2,3(O)ST; test: Sialyltransferase assay with cloned α2,3(O)ST; format: biochemical; conditions: for Km / Vmax: CMP-NeuAc 150 μM, Lineweaver-Burke plot; for Sialyltransferase activity (%) Cloned α2,3(O)ST: Table I, acceptor 7.5 mM, 100% = 40560 CPM (3-O-MeGalβ1,4GlcNAcβ1,6(Galβ1,3)GalNAcα-O-Bn); for Cloned Sialyltransferase Activities α2,3(O) ST %: Table III, compound 7.5 mM, 100% = 39200 CPM (3-O-MeGalβ1,4GlcNAcβ1,6(Galβ1,3)GalNAcα-O-Bn)
[3] = molecular target: T2, Rat recombinant α2,6(N)ST (Rattus norvegicus, UniProt P13721); test: Sialyltransferase assay with cloned α2,6(N)ST; format: biochemical; conditions: for Sialyltransferase activity (%) Cloned α2,6(N)ST: Table I, acceptor 7.5 mM, 100% = 43500 CPM (Galβ1,4GlcNAcβ-O—Al); for Cloned Sialyltransferase Activities α2,6(N)ST %: Table III, compound 7.5 mM, 100% = 30440 CPM (Galβ1,4GlcNAcβ1,6(3-O-MeGalβ1,3)GalNAcα-O-Bn)
T2 construct: purchased Calbiochem
T2 sequence (P13721 1-403): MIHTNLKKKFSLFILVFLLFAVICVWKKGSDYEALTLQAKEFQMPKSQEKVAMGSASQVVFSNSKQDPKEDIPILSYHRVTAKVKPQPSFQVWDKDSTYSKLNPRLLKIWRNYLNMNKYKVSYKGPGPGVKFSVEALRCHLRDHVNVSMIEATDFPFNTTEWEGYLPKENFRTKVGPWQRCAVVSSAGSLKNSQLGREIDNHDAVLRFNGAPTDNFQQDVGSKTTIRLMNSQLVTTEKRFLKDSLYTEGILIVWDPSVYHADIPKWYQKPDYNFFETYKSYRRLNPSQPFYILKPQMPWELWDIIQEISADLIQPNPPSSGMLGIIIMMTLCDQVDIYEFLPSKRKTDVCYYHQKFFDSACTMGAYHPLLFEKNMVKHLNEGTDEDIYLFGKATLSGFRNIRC
Description: (§1) Rat recombinant α2,3(O)ST, α2,3(N)ST and α2,6(N)ST were purchased from Calbiochem and stored at either −20° C. or −70° C. as recommended by the supplier. […] 10 μl aliquots of the diluted enzymes were used in the assays run in duplicate.
(§2) The incubation mixtures run in duplicate contained 0.1M NaCacodylate buffer pH6.0, the acceptor (typically at 7.5 mM, or as indicated in some experiments), CMP-[9 ^3H] NeuAc (typically 0.2 μci; 20 μci/nmol or as indicated in some experiments) and the enzyme in a total volume of 20 μl. The control incubation mixtures contained everything except the acceptor. Incubation was carried out for 2 h at 37° C. The enzymatic transfer of [9-^3H] NeuAc to a typical acceptor was linear for 2 h and less than 30% CMP-[9-^3H] NeuAc was utilized. Chromatography, using either Dowex-1-Formate, Sep-Pak C18 or Biogel P2, was applied to separate radioactive product from un-reacted [9-^3H] NeuAc as described below.
(§3) The radioactive products from neutral allyl and methyl glycosides as well as non-glycosides were measured by fractionation on Dowex-1-Formate (Bio-Rad: AG-1X8; 200-400 mesh; format form) as follows: The incubation mixture was diluted with 1.0 ml water and passed through AG-1-formate column (1.0 ml bed volume in a Pasteur pipet which had been washed with 5 ml of 2M Formic acid followed by 10 ml water). The column was washed twice with 1.0 ml water after the entry of the sample and then eluted with 3.0 ml of 0.1M NaCl. The radioactivity present in water and 0.1M NaCl eluates were measured separately using 3a70 scintillation cocktail (Research Products International, Mount Prospect, Ill.) and a Beckman LS6500 scintillation counter. The CPM values were corrected by subtracting the blank CPM. Any radioactivity present in the water eluate (as noticed in the case of some methylglycosides) was added to the corresponding CPM value of 0.1M NaCl eluate. The radioactive products from sulfated and/or sialylated methylglycosides were also measured by the above procedure, only the elution of the AG-1-Formate column was continued further with 3.0 ml of 0.2M NaCl for achieving a complete elution of the radioactive product, a correction being made as before by subtracting the corresponding blank values.
(§4) The radioactive products from benzylglycosides and monosialylated benzylglycosides were measured by hydrophobic chromatography on Sep-Pak C18 cartridge (Waters, Milford, Mass.) and eluting the product with 3.0 ml methanol (30). The radioactivity was determined by liquid scintillation as above.
(§5) For such work, a Biogel P2 column (Fine Mesh; 1.0×116.0 cm) was used with 0.1M pyridine acetate pH5.4 as the eluent at room temperature. The effluent fractions were monitored for radioactivity and the first peak containing radioactivity was collected, lyophilized to dryness, dissolved in 200 μl of water and stored frozen at −20° C. for thin layer chromatography (TLC) and other experimentation.

[4] = tested on: LNCaP α2,3(O)ST; test: Sialyltransferase assay with LNCaP cell extract; format: biochemical, human; conditions: for Sialyltransferase activity (%) LNCaP α2,3(O)ST: Table I, acceptor 7.5 mM, 100% = 30930 CPM (3-O-MeGalβ1,4GlcNAcβ1,6(Galβ1,3)GalNAcα-O-Bn); for LNCaPα2,3(O)ST %: Table III, compound 7.5 mM, 100% = 30100 CPM (3-O-MeGalβ1,4GlcNAcβ1,6(Galβ1,3)GalNAcα-O-Bn)
Procedure, shortened: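 LNCaP Triton X-100 extract (5 mg protein/ml; 0.1M Tris-maleate pH6.3) incubated with acceptor (typically 7.5 mM) and CMP-[9-3H]NeuAc (typically 0.2 μCi) in 0.1M Na cacodylate pH6.0, 2 h at 37 °C, in duplicate. Radioactive product separated on Dowex-1-formate, Sep-Pak C18 or Biogel P2 and counted by scintillation; blank without acceptor subtracted.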

[5] = molecular target: T3, Rat recombinant α2,3(N)ST (Rattus norvegicus, UniProt Q02734); test: Sialyltransferase assay with cloned α2,3(N)ST; format: biochemical; conditions: for Sialyltransferase activity (%) Cloned α2,3(N)ST: Table I, acceptor 7.5 mM, 100% = 29520 CPM (Galβ1,4GlcNAcβ-O—Al); for Cloned Sialyltransferase Activities α2,3(N) ST %: Table III, compound 7.5 mM, 100% = 38140 CPM (Galβ1,4GlcNAcβ1,6(3-O-MeGalβ1,3)GalNAcα-O-Bn)
T3 construct: purchased Calbiochem
T3 sequence (Q02734 29-374 limits assumed): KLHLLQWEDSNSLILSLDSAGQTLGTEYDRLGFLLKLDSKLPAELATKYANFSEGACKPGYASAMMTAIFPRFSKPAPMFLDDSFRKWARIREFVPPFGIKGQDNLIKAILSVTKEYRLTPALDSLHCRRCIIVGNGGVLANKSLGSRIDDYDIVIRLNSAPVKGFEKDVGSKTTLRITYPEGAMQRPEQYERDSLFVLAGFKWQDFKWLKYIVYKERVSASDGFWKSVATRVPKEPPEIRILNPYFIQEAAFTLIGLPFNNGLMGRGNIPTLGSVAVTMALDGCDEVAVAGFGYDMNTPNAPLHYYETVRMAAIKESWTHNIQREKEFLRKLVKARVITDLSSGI
Description: as §1, §2, §3, §4, §5

CC(=O)N[C@H]1[C@H](OC[C@H]2O[C@H](OCc3ccccc3)[C@H](NC(C)=O)[C@@H](O[C@@H]3O[C@H](CO)[C@H](O)[C@H](O)[C@H]3O)[C@H]2O)O[C@H](CO)[C@@H](O[C@@H]2O[C@H](CO)[C@H](O)[C@H](OS(=O)(=O)O)[C@H]2O)[C@@H]1O [3-O-SulfoGalβ1,4GlcNAcβ1,6(Galβ1,3)GalNAcα-O-Bn]
Sialyltransferase activity (%) Cloned α2,3(O)ST [1]: 70.3^e,6% | Sialyltransferase activity (%) Cloned α2,3(O)ST ([1]; listed as 3-O-sulfoGalβ1,4GlcNAcβ1,6(Galβ1,3)GalNAcα-O-Bn): 70.3%

CC(=O)NC1C(OCC2OC(OCc3ccccc3)C(NC(C)=O)C(OC3OC(CO)C(O)C(O)C3O)C2O)OC(COS(=O)(=O)O)C(OC2OC(CO)C(O)C(O)C2O)C1O (centres unmarked) [Galβ1,4(6-O-Sulfo)GlcNAcβ1,6(Galβ1,3)GalNAcα-O-Bn]
Sialyltransferase activity (%) Cloned α2,3(O)ST [1]: 69.4% and 69.4^e %

CC(=O)N[C@H]1[C@H](OC[C@H]2O[C@H](OCc3ccccc3)[C@H](NC(C)=O)[C@@H](O[C@@H]3O[C@H](C)[C@H](O)[C@H](O)[C@H]3O)[C@H]2O)O[C@H](CO)[C@@H](O)[C@@H]1O [D-Fucβ1,3(GlcNAcβ1.6)GalNAcα-O-Bn]
Km [2]: 280 µM | Vmax [2]: 1562 pmol/h | acceptor efficiency for cloned α2,3(O)ST [1]: 100%

C=CCOC1OC(CO)C(O)C(OC2OC(CO)C(O)C(O)C2O)C1NC(C)=O (centres unmarked) [Galβ1,3GlcNAcβ-O—Al]
Sialyltransferase activity (%) Cloned α2,3(O)ST [2]: 42.1% | Sialyltransferase activity (%) Cloned α2,6(N)ST [3]: 3.0% | Sialyltransferase activity (%) LNCaP α2,3(O)ST [4]: 3.7% | Sialyltransferase activity (%) Cloned α2,3(N)ST [5]: 123.1%

CO[C@@H]1[C@H](O)[C@@H](O)[C@H](O[C@H]2[C@@H](O)[C@@H](CO[C@@H]3O[C@H](CO)[C@@H](O[C@@H]4O[C@H](CO)[C@H](O)[C@H](O)[C@H]4O)[C@H](O)[C@H]3NC(C)=O)O[C@H](OCc3ccccc3)[C@@H]2NC(C)=O)O[C@@H]1CO [Galβ1,4GlcNAcβ1,6(4-O-MeGalβ1,3)GalNAcα-O-Bn]
Cloned Sialyltransferase Activities α2,3(O) ST % [2]: 101.3% | Cloned Sialyltransferase Activities α2,6(N)ST % [3]: 101.3% | acceptor concentration at which maximum activity is reached (FIG. 3D) ([4]; LNCaPα2,3(O)ST): 0.15 mM | LNCaPα2,3(O)ST % [4]: 112.0% | Cloned Sialyltransferase Activities α2,3(N) ST % [5]: 100.6%

CC(=O)N[C@H]1[C@@H](OCc2ccccc2)O[C@H](CO)[C@H](O)[C@@H]1O[C@@H]1O[C@H](C)[C@H](O)[C@H](O)[C@H]1O [D-Fucβ1,3GalNAcα-O-Bn]
Km [2]: 210 µM | Vmax [2]: 1250 pmol/h | acceptor efficiency for cloned α2,3(O)ST [1]: 100%

CO[C@H]1[C@@H](O)[C@@H](CO)O[C@@H](O[C@H]2[C@@H](O)[C@@H](CO[C@@H]3O[C@H](CO)[C@@H](O[C@@H]4O[C@H](CO)[C@H](O)[C@H](O)[C@H]4O)[C@H](O)[C@H]3NC(C)=O)O[C@H](OCc3ccccc3)[C@@H]2NC(C)=O)[C@@H]1O [Galβ1,4GlcNAcβ1,6(3-O-MeGalβ1,3)GalNAcα-O-Bn]
Sialyltransferase activity (%) Cloned α2,3(O)ST [2]: 49.6% | Cloned Sialyltransferase Activities α2,3(O) ST % [2]: 49.6% | Sialyltransferase activity (%) Cloned α2,6(N)ST [3]: 97.7% | Cloned Sialyltransferase Activities α2,6(N)ST % [3]: 100.0^a % | Sialyltransferase activity (%) LNCaP α2,3(O)ST [4]: 3.0% | LNCaPα2,3(O)ST % [4]: 3.0% | Sialyltransferase activity (%) Cloned α2,3(N)ST [5]: 95.3% | Cloned Sialyltransferase Activities α2,3(N) ST % [5]: 100.0^b %

CO[C@H]1O[C@H](CO[C@@H]2O[C@H](COS(=O)(=O)O)[C@@H](O[C@@H]3O[C@H](CO)[C@H](O)[C@H](O)[C@H]3O)[C@H](O)[C@H]2NC(C)=O)[C@H](O)[C@H](O[C@@H]2O[C@H](CO)[C@H](O)[C@H](O)[C@H]2O)[C@H]1NC(C)=O [Galβ1,4(6-O-Sulfo)GlcNAcβ1,6(Galβ1,3)GalNAcα-O-Me]
Sialyltransferase activity (%) Cloned α2,3(O)ST [2]: 27.2% | Sialyltransferase activity (%) Cloned α2,6(N)ST [3]: 30.6^17% | Sialyltransferase activity (%) LNCaP α2,3(O)ST [4]: 14.8% | Sialyltransferase activity (%) Cloned α2,3(N)ST [5]: 28.1% and 28.1^21% | Sialyltransferase activity (%) Cloned α2,3(N)ST ([5]; listed as Galβ1,4(6-O-Sulfo)GlcNAcβ1,6(Galβ1,3)GalNAcα-): 28.1%

CC(=O)N[C@H]1[C@H](OC[C@H]2O[C@H](OCc3ccccc3)[C@H](NC(C)=O)[C@@H](O[C@@H]3O[C@H](CO)[C@H](O)[C@H](O)[C@H]3O)[C@H]2O)O[C@H](COS(=O)(=O)O)[C@@H](O)[C@@H]1O [6-O-SulfoGlcNAcβ1,6(Galβ1,3)GalNAcα-O-Bn]
Sialyltransferase activity (%) Cloned α2,3(O)ST [1]: 49.4% and 49.4^e,5%
